# Columns and labels:
# Assay in all cases: KINOMEscan
# Format in all cases: binding
# Settings in all cases: read-out: Remaining enzyme activity
# [1] = molecular target: T1, PKAC-apha (Homo sapiens, UniProt P17612)
# T1 construct: purchased Ambit (DiscoverX) KINOMEscan; Cerep
# In short: (§1)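 Read-out: qPCR quantitation of DNA-tagged kinase eluted from affinity beads after competition with SC81458 (10 μM final). Kinases were expressed either as T7 phage fusions in E. coli or in HEK-293 cells.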
# [2] = molecular target: T2, SgK110 (Homo sapiens, UniProt P0C264)
# T2 construct: purchased Ambit (DiscoverX) KINOMEscan; Cerep
# T2 sequence (P0C264 whole entry): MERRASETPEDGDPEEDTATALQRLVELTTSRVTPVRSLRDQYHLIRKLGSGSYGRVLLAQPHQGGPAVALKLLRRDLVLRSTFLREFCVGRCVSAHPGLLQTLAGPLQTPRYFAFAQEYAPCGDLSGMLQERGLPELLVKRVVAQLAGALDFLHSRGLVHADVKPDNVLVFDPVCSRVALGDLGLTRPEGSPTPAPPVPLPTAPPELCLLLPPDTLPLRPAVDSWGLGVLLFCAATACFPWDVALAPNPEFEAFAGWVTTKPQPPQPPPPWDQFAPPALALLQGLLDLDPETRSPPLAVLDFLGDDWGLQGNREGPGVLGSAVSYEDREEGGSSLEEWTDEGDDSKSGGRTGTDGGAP
# In short: as §1
# [3] = molecular target: T3, BRSK2 (Homo sapiens, UniProt Q8IWQ3)
# T3 construct: purchased Ambit (DiscoverX) KINOMEscan; Cerep
# In short: as §1
# [4] = molecular target: T4, MEK3 (Homo sapiens, UniProt P46734)
# T4 construct: purchased Ambit (DiscoverX) KINOMEscan; Cerep
# T4 sequence (P46734 whole entry): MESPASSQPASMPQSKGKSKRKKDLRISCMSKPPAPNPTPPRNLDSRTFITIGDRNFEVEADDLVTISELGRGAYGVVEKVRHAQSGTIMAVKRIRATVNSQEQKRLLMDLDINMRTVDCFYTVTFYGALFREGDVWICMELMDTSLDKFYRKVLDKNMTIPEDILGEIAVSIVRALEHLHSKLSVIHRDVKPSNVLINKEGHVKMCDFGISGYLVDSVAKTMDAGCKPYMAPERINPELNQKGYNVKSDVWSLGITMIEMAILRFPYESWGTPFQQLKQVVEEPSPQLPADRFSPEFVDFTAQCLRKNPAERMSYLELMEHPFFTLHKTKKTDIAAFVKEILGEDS
# In short: as §1
# [5] = molecular target: T5, PLK4 (Homo sapiens, UniProt O00444)
# T5 construct: purchased Ambit (DiscoverX) KINOMEscan; Cerep
# In short: as §1
# [6] = molecular target: T6, EPHA2 (Homo sapiens, UniProt P29317)
# T6 construct: purchased Ambit (DiscoverX) KINOMEscan; Cerep
# In short: as §1
# [7] = molecular target: T7, SLK (Homo sapiens, UniProt Q9H2G2)
# T7 construct: purchased Ambit (DiscoverX) KINOMEscan; Cerep
# T7 sequence (Q9H2G2 whole entry): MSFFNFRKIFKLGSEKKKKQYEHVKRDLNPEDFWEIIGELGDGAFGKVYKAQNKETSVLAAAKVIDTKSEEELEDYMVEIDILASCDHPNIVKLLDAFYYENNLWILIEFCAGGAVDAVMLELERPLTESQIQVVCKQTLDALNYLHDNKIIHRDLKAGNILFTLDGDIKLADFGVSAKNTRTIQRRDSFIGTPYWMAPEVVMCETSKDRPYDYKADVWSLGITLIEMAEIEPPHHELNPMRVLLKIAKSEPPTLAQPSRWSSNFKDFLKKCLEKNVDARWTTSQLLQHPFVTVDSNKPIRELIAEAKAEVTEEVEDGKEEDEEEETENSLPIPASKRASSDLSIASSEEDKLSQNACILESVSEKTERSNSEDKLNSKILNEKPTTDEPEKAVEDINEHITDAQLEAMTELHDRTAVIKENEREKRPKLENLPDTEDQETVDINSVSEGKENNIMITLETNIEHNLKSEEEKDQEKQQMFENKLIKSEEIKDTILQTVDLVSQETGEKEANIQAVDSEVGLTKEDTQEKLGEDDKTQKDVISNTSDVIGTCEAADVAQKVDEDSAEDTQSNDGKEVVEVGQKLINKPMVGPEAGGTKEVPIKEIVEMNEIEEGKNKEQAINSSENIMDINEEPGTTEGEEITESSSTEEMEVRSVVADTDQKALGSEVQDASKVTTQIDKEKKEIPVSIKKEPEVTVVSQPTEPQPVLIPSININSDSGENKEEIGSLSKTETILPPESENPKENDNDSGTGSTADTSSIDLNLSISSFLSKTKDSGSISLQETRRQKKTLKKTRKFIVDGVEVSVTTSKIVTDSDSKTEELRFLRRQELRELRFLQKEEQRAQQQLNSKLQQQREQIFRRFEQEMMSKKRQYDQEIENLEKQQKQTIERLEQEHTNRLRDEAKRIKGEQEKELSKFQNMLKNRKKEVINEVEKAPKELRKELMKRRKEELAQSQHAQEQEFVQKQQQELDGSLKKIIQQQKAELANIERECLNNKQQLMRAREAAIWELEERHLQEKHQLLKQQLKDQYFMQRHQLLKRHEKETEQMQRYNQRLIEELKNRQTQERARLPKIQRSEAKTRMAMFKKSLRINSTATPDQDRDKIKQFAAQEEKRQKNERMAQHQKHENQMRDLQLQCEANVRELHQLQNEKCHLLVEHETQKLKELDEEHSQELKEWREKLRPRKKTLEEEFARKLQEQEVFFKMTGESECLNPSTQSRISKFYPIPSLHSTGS
# In short: as §1
# [8] = molecular target: T8, PIP5K2b (Homo sapiens, UniProt P78356)
# T8 construct: purchased Ambit (DiscoverX) KINOMEscan; Cerep
# In short: as §1
# [9] = molecular target: T9, IKK-epsilon (Homo sapiens, UniProt Q14164)
# T9 construct: purchased Ambit (DiscoverX) KINOMEscan; Cerep
# In short: as §1
# [10] = molecular target: T10, PIP5K1a (Homo sapiens, UniProt Q99755)
# T10 construct: purchased Ambit (DiscoverX) KINOMEscan; Cerep
# T10 sequence (Q99755 whole entry): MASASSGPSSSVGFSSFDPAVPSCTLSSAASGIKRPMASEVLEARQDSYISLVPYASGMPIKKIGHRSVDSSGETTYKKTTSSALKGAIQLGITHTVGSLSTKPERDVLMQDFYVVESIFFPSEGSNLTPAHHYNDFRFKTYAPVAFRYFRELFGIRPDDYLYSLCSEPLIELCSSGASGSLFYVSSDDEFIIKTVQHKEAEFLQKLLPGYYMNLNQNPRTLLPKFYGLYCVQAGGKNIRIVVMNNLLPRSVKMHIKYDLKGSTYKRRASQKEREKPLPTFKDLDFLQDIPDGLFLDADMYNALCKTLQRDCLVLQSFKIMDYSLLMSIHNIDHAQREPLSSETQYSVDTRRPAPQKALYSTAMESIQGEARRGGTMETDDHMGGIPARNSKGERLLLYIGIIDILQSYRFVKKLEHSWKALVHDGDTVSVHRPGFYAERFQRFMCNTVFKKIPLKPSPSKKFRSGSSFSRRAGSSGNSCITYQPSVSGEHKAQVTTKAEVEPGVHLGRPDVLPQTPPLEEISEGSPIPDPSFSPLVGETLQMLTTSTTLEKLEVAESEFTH
# In short: as §1
# [11] = molecular target: T11, CLK2 (Homo sapiens, UniProt P49760)
# T11 construct: purchased Ambit (DiscoverX) KINOMEscan; Cerep
# In short: as §1
# [12] = molecular target: T12, DAPK1 (Homo sapiens, UniProt P53355)
# T12 construct: purchased Ambit (DiscoverX) KINOMEscan; Cerep
# In short: as §1
# [13] = molecular target: T13, DYRK2 (Homo sapiens, UniProt Q92630)
# T13 construct: purchased Ambit (DiscoverX) KINOMEscan; Cerep
# In short: as §1
# [14] = molecular target: T14, ZAK (Homo sapiens, UniProt Q9NYL2)
# T14 construct: purchased Ambit (DiscoverX) KINOMEscan; Cerep
# In short: as §1
# [15] = molecular target: T15, FES (Homo sapiens, UniProt P07332)
# T15 construct: purchased Ambit (DiscoverX) KINOMEscan; Cerep
# In short: as §1
# [16] = molecular target: T16, ABL1(Y253F) (Homo sapiens, UniProt P00519, Y253F)
# T16 construct: purchased Ambit (DiscoverX) KINOMEscan; Cerep
# In short: as §1
# [17] = molecular target: T17, MINK (Homo sapiens, UniProt Q8N4C8)
# T17 construct: purchased Ambit (DiscoverX) KINOMEscan; Cerep
# T17 sequence (Q8N4C8 whole entry): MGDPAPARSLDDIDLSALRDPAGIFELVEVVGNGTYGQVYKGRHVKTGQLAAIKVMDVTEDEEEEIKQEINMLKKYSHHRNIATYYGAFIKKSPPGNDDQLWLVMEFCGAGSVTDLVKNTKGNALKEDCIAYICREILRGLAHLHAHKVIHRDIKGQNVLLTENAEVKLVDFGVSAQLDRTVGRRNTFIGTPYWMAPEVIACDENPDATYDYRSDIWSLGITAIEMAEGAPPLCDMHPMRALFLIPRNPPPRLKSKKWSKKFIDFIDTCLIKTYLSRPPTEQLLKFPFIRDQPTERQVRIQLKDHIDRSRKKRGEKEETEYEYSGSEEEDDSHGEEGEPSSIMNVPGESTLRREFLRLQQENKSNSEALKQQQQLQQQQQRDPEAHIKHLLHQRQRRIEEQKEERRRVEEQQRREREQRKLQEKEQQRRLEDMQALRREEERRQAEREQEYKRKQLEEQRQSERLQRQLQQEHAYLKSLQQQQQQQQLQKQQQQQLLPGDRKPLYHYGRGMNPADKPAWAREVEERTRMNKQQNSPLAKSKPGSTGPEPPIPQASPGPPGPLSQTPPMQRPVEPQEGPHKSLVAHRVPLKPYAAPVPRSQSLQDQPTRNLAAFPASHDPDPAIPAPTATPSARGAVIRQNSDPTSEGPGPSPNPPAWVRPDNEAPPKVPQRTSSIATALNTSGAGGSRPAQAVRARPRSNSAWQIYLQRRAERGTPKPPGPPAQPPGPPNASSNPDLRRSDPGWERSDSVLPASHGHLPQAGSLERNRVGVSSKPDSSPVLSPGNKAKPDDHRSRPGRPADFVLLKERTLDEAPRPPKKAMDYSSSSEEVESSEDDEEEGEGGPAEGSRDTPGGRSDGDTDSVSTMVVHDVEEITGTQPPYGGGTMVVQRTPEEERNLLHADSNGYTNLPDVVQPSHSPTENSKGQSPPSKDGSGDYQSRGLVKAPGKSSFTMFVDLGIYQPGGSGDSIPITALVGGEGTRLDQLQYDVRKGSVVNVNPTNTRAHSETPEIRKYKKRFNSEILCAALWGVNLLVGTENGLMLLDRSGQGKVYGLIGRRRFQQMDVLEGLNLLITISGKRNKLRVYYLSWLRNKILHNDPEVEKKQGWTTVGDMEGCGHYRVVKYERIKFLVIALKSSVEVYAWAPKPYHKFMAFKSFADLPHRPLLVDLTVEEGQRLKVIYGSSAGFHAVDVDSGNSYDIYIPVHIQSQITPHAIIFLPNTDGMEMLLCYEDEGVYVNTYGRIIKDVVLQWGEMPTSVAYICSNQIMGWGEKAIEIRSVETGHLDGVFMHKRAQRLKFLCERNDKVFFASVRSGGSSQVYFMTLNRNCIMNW
# In short: as §1
# [18] = molecular target: T18, SNARK (Homo sapiens, UniProt Q9H093)
# T18 construct: purchased Ambit (DiscoverX) KINOMEscan; Cerep
# In short: as §1
# [19] = molecular target: T19, ASK1 (Homo sapiens, UniProt Q99683)
# T19 construct: purchased Ambit (DiscoverX) KINOMEscan; Cerep
# In short: as §1
# [20] = molecular target: T20, LYN (Homo sapiens, UniProt P07948)
# T20 construct: purchased Ambit (DiscoverX) KINOMEscan; Cerep
# In short: as §1
# [21] = molecular target: T21, RPS6KA2(Kin.Dom.1-N-term) (Homo sapiens, UniProt Q15349)
# T21 construct: RPS6KA2(Kin.Dom.1-N-term); purchased Ambit (DiscoverX) KINOMEscan; Cerep
# In short: as §1
# [22] = molecular target: T22, INSR (Homo sapiens, UniProt P06213)
# T22 construct: purchased Ambit (DiscoverX) KINOMEscan; Cerep
# In short: as §1
# [23] = molecular target: T23, KIT (Homo sapiens, UniProt P10721)
# T23 construct: purchased Ambit (DiscoverX) KINOMEscan; Cerep
# In short: as §1
# [24] = molecular target: T24, HPK1 (Homo sapiens, UniProt Q92918)
# T24 construct: purchased Ambit (DiscoverX) KINOMEscan; Cerep
# In short: as §1
# [25] = molecular target: T25, GCN2(kin.Dom.2, S808G) (Homo sapiens, UniProt Q9P2K8, S808G)
# T25 construct: GCN2(kin.Dom.2, S808G); purchased Ambit (DiscoverX) KINOMEscan; Cerep
# T25 sequence (Q9P2K8 590-1001 S808G limits assumed): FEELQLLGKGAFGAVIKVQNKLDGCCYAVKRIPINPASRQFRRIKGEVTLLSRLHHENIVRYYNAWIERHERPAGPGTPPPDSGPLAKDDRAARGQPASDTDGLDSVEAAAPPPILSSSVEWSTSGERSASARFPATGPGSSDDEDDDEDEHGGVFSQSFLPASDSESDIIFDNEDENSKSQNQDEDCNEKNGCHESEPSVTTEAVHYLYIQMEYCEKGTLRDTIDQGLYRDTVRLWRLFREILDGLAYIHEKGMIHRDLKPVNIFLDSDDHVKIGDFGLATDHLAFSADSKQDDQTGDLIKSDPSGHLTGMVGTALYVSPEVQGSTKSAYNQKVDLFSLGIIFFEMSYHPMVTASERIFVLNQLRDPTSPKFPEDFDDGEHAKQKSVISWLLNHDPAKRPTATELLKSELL
# In short: as §1
# [26] = molecular target: T26, PIK3Cb (Homo sapiens, UniProt P42338)
# T26 construct: purchased Ambit (DiscoverX) KINOMEscan; Cerep
# In short: as §1
# [27] = molecular target: T27, NIM1 (Homo sapiens, UniProt Q8IY84)
# T27 construct: purchased Ambit (DiscoverX) KINOMEscan; Cerep
# In short: as §1
# [28] = molecular target: T28, ERBB2 (Homo sapiens, UniProt P04626)
# T28 construct: purchased Ambit (DiscoverX) KINOMEscan; Cerep
# In short: as §1
# [29] = molecular target: T29, EPHA8 (Homo sapiens, UniProt P29322)
# T29 construct: purchased Ambit (DiscoverX) KINOMEscan; Cerep
# In short: as §1
# [30] = molecular target: T30, MST3 (Homo sapiens, UniProt Q9Y6E0)
# T30 construct: purchased Ambit (DiscoverX) KINOMEscan; Cerep
# In short: as §1
# [31] = molecular target: T31, SIK (Homo sapiens, UniProt P57059)
# T31 construct: purchased Ambit (DiscoverX) KINOMEscan; Cerep
# T31 sequence (P57059 whole entry): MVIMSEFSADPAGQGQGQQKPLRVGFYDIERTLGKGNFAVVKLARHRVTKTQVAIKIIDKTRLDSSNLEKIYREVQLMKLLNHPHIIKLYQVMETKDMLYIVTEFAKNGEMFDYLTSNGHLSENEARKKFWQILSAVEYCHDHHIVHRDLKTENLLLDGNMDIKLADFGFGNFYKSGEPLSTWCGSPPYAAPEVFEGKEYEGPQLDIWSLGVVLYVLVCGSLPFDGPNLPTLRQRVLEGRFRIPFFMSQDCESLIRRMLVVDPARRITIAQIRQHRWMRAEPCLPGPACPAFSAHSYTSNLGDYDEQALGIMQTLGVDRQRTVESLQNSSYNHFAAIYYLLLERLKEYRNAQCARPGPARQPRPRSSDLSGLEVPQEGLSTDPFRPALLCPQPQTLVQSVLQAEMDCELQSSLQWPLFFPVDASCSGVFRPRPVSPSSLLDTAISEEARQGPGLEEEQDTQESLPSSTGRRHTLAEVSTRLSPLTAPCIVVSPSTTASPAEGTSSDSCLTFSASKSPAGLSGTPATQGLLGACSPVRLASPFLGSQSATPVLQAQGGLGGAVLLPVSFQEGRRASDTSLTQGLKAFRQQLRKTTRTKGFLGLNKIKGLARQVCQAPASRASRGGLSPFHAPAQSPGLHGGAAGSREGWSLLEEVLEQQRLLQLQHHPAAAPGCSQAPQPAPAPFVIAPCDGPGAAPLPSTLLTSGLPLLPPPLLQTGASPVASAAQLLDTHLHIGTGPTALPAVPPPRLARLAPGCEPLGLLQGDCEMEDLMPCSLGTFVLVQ
# In short: as §1
# [32] = molecular target: T32, MKNK2 (Homo sapiens, UniProt Q9HBH9)
# T32 construct: purchased Ambit (DiscoverX) KINOMEscan; Cerep
# In short: as §1
# [33] = molecular target: T33, GAK (Homo sapiens, UniProt O14976)
# T33 construct: purchased Ambit (DiscoverX) KINOMEscan; Cerep
# In short: as §1
smiles,measurement,setting,value
"CCCCN1CCN(C(=N)c2cccc(NC(=O)Nc3ccc(S(=O)(=O)NCc4ccc(S(N)(=O)=O)cc4)cc3)c2)CC1 [SC81458, 4-(3-(3-((4-butylpiperazin-1-yl)(imino)methyl)phenyl)ureido)-N-(4-sulfamoylbenzyl) benzenesulfonamide]",remaining binding at 10 µM,[1],75%
same,remaining binding at 10 µM,[2],100%
same,remaining binding at 10 µM,[3],100%
same,remaining binding at 10 µM,[4],100%
same,remaining binding at 10 µM,[5],93%
same,remaining binding at 10 µM,[6],99%
same,remaining binding at 10 µM,[7],100%
same,remaining binding at 10 µM,[8],84%
same,remaining binding at 10 µM,[9],100%
same,remaining binding at 10 µM,[10],100%
same,remaining binding at 10 µM,[11],100%
same,remaining binding at 10 µM,[12],100%
same,remaining binding at 10 µM,[13],100%
same,remaining binding at 10 µM,[14],100%
same,remaining binding at 10 µM,[15],100%
same,remaining binding at 10 µM,[16],92%
same,remaining binding at 10 µM,[17],95%
same,remaining binding at 10 µM,[18],100%
same,remaining binding at 10 µM,[19],100%
same,remaining binding at 10 µM,[20],97%
same,remaining binding at 10 µM,[21],100%
same,remaining binding at 10 µM,[22],100%
same,remaining binding at 10 µM,[23],60%
same,remaining binding at 10 µM,[24],100%
same,remaining binding at 10 µM,[25],100%
same,remaining binding at 10 µM,[26],70%
same,remaining binding at 10 µM,[27],100%
same,remaining binding at 10 µM,[28],100%
same,remaining binding at 10 µM,[29],83%
same,remaining binding at 10 µM,[30],100%
same,remaining binding at 10 µM,[31],97%
same,remaining binding at 10 µM,[32],100%
same,remaining binding at 10 µM,[33],92%
